Active and inactive are the calls of the source. The calls are words filed in the database; no cut-off is given here.
Assays:
Mus musculus [1] = experiment: Anticonvulsant activity in maximal electroshock induced seizure mouse model assessed as suppression in hindlimb tonic extension at 100 mg/kg, ip measured at 0.5 hrs post dose; type: functional, organism-based
Mus musculus [2] = experiment: Neurotoxicity in mouse assessed as induction of motor impairment at 300 mg/kg, ip measured at 4 hrs post dose by rotarod method; type: toxicity, organism-based; conditions: in vivo
Rattus norvegicus [3] = experiment: Neurotoxicity in Sprague-Dawley rat assessed as behavioral change at 30 mg/kg, ip measured at […] post dose; type: toxicity, organism-based; conditions: in vivo
Rattus norvegicus [4] = experiment: Neurotoxicity in Sprague-Dawley rat assessed as behavioral change at 30 mg/kg, ip measured at 2 hrs post dose; type: toxicity, organism-based; conditions: in vivo
Rattus norvegicus [5] = experiment: Anticonvulsant activity in maximal electroshock induced seizure Sprague-Dawley rat model assessed as suppression in hindlimb tonic extension at 30 mg/kg, ip measured at 1 hr post dose; type: functional, organism-based
Mus musculus [6] = experiment: Anticonvulsant activity in po dosed pentylenetetrazole induced seizure mouse model assessed as no observable episode of clonic convulsion of at least 5 secs by measuring time to peak effect; type: functional
Mus musculus [7] = experiment: Anticonvulsant activity in po dosed 6-Hz induced seizure mouse model assessed as restoration of normal activity within 10 secs from stimulation by measuring time to peak effect at 44 mA; type: functional
Mus musculus [8] = experiment: Anticonvulsant activity in po dosed maximal electroshock induced seizure mouse model assessed as suppression in hindlimb tonic extension; type: functional
Mus musculus [9] = experiment: Anticonvulsant activity in po dosed pentylenetetrazole induced seizure mouse model assessed as no observable episode of clonic convulsion of at least 5 secs; type: functional
Mus musculus [10] = experiment: Anticonvulsant activity in po dosed 6-Hz induced seizure mouse model assessed as restoration of normal activity within 10 secs from stimulation at 44 mA; type: functional
[11] = Protection index, ratio of TD50 for neurotoxicity in po dosed mouse to ED50 for po dosed maximal electroshock induced seizure mouse model; type: toxicity, organism-based; conditions: in vivo, read-out: Ratio TD50/ED50
[12] = Protection index, ratio of TD50 for neurotoxicity in po dosed mouse to ED50 for po dosed pentylenetetrazole induced seizure mouse model; type: toxicity, organism-based; conditions: in vivo, read-out: Ratio TD50/ED50
[13] = Protection index, ratio of TD50 for neurotoxicity in po dosed mouse to ED50 for po dosed 6-Hz induced seizure mouse model at 44 mA; type: toxicity, organism-based; conditions: in vivo, read-out: Ratio TD50/ED50
[14] = Neurotoxicity in po dosed mouse; type: toxicity, organism-based; conditions: in vivo
[15] = target: Type-1 angiotensin II receptor (Homo sapiens) (UniProt P30556); experiment: Displacement of [125I][Sar1,Ile8]-AT2 from human recombinant AT1 receptor expressed in HEK293 cells at 100 uM measured after 120 mins by scintillation counting method relative to control; type: cell-based
Rattus norvegicus [16] = species on record: Rattus norvegicus; experiment: Displacement of [125I][Tyr4]bombesin from rat cerebral cortex BB receptor at 100 uM measured after 60 mins by scintillation counting method relative to control
[17] = target: B2 bradykinin receptor (Homo sapiens) (UniProt P30411); experiment: Displacement of [3H]bradykinin from human recombinant bradykinin B2 receptor expressed in CHO cells at 100 uM measured after 60 mins by scintillation counting method relative to control; type: cell-based
[18] = target: Calcitonin gene-related peptide type 1 receptor (Homo sapiens) (UniProt Q16602); experiment: Displacement of [125I]hCGRPa from human recombinant CGRP receptor expressed in CHO cells at 100 uM measured after 90 mins by scintillation counting method relative to control; type: cell-based
[19] = target: Neurotensin receptor type 1 (Homo sapiens) (UniProt P30989); experiment: Displacement of [125I]Tyr3-neurotensin from human recombinant NTS1 receptor expressed in CHO cells at 100 uM measured after 60 mins by scintillation counting method relative to control; type: cell-based
Rattus norvegicus [20] = species on record: Rattus norvegicus; experiment: Displacement of [3H]D888 from rat cerebral cortex calcium channel L type verapamil binding site at 100 uM measured after 120 mins by scintillation counting method relative to control
Rattus norvegicus [21] = species on record: Rattus norvegicus; experiment: Displacement of [125I]alpha-dendrotoxin from rat cerebral cortex Kv channel at 100 uM measured after 60 mins by scintillation counting method relative to control
Mus musculus [22] = experiment: Anticonvulsant activity in 6-Hz induced seizure mouse model assessed as restoration of normal activity within 10 secs from stimulation at 100 mg/kg, ip at 44 mA measured at 0.5 hrs post dose; type: functional, organism-based
Rattus norvegicus [23] = experiment: Anticonvulsant activity in maximal electroshock induced seizure Sprague-Dawley rat model assessed as suppression in hindlimb tonic extension at 30 mg/kg, po measured at 0.5 hrs post dose; type: functional, organism-based
Rattus norvegicus [24] = experiment: Neurotoxicity in Sprague-Dawley rat assessed as behavioral change at 50 mg/kg, ip measured at […] post dose; type: toxicity, organism-based; conditions: in vivo
Rattus norvegicus [25] = experiment: Neurotoxicity in Sprague-Dawley rat assessed as behavioral change at 50 mg/kg, ip measured at 2 hrs post dose; type: toxicity, organism-based; conditions: in vivo
Rattus norvegicus [26] = experiment: Neurotoxicity in Sprague-Dawley rat assessed as behavioral change at 50 mg/kg, ip measured at 4 hrs post dose; type: toxicity, organism-based; conditions: in vivo
[27] = target: Histamine H1 receptor (Homo sapiens) (UniProt P35367); experiment: Displacement of [3H]pyrilamine from human recombinant H1 receptor expressed in HEK293 cells at 100 uM measured after 60 mins by scintillation counting method relative to control; type: cell-based
[28] = target: Histamine H2 receptor (Homo sapiens) (UniProt P25021); experiment: Displacement of [125I]APT from human recombinant H2 receptor expressed in CHO cells at 100 uM measured after 120 mins by scintillation counting method relative to control; type: cell-based
[29] = target: Muscarinic acetylcholine receptor M2 (Homo sapiens) (UniProt P08172); experiment: Displacement of [3H]AF-DX384 from human recombinant M2 receptor expressed in CHO cells at 100 uM measured after 60 mins by scintillation counting method relative to control; type: cell-based
[30] = target: Neuropeptide Y receptor type 1 (Homo sapiens) (UniProt P25929); experiment: Displacement of [125I]peptide YY from Y1 in human SK-N-MC cells receptor at 100 uM measured after 120 mins by scintillation counting method relative to control; type: cell-based
[31] = target: Neuropeptide Y receptor type 2 (Homo sapiens) (UniProt P49146); experiment: Displacement of [125I]peptide YY from Y2 in human KAN-TS cells receptor at 100 uM measured after 60 mins by scintillation counting method relative to control; type: cell-based
[32] = target: Glucocorticoid receptor (Homo sapiens) (UniProt P04150); experiment: Displacement of [3H]dexamethasone from GR receptor in human IM9 cells at 100 uM relative to control; type: cell-based; conditions: IM-9
[33] = target: Vasopressin V1a receptor (Homo sapiens) (UniProt P37288); experiment: Displacement of [3H]AVP from human recombinant V1a receptor expressed in CHO cells at 100 uM measured after 60 mins by scintillation counting method relative to control; type: cell-based
Mus musculus [34] = experiment: Neurotoxicity in mouse assessed as induction of motor impairment at 100 mg/kg, ip measured at 0.5 hrs post dose by rotarod method; type: toxicity, organism-based; conditions: in vivo
Mus musculus [35] = experiment: Anticonvulsant activity in 6-Hz induced seizure mouse model assessed as restoration of normal activity within 10 secs from stimulation at 100 mg/kg, ip at 44 mA measured at […] post dose; type: functional, organism-based
Rattus norvegicus [36] = experiment: Anticonvulsant activity in maximal electroshock induced seizure Sprague-Dawley rat model assessed as suppression in hindlimb tonic extension at 30 mg/kg, ip measured at 0.5 hrs post dose; type: functional, organism-based
Rattus norvegicus [37] = experiment: Neurotoxicity in po dosed Sprague-Dawley rat assessed as behavioral change by measuring time to peak effect; type: toxicity, organism-based; conditions: in vivo

Sequence of Neuropeptide Y receptor type 2 (Homo sapiens) (P49146 whole entry): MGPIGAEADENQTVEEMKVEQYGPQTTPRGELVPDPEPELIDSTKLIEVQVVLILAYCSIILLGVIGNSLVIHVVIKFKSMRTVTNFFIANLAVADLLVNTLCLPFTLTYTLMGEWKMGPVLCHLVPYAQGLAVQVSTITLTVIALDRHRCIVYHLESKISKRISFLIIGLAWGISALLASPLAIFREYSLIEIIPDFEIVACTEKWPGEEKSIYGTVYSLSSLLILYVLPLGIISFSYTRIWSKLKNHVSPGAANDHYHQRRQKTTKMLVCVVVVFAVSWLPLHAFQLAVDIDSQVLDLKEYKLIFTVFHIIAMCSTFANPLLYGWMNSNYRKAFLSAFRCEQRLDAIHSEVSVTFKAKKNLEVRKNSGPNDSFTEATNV
Sequence of Neurotensin receptor type 1 (Homo sapiens) (P30989 whole entry): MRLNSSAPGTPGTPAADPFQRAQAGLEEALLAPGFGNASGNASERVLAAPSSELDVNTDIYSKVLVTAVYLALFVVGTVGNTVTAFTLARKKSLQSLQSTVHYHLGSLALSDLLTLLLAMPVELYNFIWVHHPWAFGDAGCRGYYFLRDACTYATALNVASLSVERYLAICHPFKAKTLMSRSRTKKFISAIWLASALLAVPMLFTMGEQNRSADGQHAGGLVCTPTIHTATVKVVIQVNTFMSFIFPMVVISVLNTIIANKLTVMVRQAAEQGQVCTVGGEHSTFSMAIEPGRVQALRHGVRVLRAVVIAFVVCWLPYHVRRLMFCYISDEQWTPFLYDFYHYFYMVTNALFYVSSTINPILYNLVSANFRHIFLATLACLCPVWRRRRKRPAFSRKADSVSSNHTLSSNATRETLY
Sequence of Type-1 angiotensin II receptor (Homo sapiens) (P30556 whole entry): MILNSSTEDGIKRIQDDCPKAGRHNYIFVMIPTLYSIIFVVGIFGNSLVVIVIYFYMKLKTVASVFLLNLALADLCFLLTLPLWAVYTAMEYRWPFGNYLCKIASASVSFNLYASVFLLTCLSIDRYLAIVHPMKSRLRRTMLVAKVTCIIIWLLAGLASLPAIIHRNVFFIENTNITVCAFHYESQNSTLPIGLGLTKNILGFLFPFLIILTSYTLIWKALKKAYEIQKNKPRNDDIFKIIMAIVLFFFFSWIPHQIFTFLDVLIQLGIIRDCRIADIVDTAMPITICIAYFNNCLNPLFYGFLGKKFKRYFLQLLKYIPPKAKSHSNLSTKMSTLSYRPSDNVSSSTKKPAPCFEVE
Sequence of Calcitonin gene-related peptide type 1 receptor (Homo sapiens) (Q16602 whole entry): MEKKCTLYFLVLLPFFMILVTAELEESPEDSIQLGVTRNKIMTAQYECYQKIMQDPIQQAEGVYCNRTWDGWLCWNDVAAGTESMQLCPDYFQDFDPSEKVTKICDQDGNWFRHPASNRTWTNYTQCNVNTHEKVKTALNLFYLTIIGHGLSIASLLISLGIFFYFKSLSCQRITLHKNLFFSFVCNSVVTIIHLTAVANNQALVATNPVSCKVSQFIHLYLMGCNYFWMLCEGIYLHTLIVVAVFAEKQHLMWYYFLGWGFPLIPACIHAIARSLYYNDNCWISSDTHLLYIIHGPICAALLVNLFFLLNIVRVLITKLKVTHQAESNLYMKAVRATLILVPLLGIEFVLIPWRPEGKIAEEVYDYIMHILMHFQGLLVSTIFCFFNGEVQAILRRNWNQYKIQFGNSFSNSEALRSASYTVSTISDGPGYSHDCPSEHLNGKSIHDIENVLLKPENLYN
Sequence of Vasopressin V1a receptor (Homo sapiens) (P37288 whole entry, looked up): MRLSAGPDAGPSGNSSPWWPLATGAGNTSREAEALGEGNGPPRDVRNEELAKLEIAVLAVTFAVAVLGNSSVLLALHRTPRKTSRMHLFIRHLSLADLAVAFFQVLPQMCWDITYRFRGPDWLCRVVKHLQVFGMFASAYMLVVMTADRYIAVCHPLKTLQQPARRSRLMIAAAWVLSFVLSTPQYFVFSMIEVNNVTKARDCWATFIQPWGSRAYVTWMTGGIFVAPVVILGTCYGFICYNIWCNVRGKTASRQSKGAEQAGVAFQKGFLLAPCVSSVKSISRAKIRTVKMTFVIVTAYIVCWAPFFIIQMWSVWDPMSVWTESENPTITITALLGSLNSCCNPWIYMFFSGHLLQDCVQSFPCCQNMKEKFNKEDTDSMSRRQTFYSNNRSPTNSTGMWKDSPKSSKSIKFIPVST
Sequence of Glucocorticoid receptor (Homo sapiens) (P04150 whole entry): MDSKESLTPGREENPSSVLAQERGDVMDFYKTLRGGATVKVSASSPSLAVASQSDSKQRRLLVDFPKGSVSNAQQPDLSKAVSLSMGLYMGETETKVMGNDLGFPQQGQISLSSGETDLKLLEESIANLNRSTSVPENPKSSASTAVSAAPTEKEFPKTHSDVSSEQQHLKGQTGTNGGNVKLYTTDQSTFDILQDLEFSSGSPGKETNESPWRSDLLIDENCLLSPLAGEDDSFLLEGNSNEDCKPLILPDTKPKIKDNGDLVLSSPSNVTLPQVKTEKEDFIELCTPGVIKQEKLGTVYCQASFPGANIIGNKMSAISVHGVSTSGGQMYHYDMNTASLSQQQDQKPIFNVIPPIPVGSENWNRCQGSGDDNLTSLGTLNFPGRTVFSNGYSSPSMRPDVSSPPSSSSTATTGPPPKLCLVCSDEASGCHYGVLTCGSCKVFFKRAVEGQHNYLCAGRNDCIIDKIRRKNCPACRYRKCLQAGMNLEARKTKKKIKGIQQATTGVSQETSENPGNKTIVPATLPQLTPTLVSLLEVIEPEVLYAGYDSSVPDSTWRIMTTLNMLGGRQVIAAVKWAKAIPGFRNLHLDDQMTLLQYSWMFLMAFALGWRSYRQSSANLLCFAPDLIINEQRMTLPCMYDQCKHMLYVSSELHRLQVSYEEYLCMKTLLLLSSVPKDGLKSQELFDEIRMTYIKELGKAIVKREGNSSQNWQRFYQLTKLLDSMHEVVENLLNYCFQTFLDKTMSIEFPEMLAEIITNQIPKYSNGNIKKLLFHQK
Sequence of Histamine H2 receptor (Homo sapiens) (P25021 whole entry): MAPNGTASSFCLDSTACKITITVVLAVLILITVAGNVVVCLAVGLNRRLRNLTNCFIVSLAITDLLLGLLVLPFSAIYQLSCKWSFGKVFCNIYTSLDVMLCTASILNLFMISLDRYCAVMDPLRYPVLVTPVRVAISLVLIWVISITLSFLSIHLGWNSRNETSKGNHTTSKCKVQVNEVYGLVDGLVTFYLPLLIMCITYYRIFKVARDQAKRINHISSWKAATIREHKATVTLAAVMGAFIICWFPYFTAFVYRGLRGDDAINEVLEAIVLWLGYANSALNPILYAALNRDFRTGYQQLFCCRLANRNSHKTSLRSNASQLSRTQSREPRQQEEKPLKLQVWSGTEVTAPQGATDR
Sequence of B2 bradykinin receptor (Homo sapiens) (P30411 whole entry): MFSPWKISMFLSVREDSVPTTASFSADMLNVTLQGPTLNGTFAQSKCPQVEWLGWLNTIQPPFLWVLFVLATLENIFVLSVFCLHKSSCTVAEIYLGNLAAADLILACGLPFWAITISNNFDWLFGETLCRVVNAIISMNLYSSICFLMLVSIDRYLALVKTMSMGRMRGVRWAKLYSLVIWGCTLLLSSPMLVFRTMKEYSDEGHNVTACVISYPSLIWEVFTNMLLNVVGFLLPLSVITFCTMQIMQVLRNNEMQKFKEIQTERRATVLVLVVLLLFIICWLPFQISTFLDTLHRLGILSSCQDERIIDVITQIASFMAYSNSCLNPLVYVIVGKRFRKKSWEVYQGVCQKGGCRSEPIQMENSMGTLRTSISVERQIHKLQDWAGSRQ
Sequence of Neuropeptide Y receptor type 1 (Homo sapiens) (P25929 whole entry): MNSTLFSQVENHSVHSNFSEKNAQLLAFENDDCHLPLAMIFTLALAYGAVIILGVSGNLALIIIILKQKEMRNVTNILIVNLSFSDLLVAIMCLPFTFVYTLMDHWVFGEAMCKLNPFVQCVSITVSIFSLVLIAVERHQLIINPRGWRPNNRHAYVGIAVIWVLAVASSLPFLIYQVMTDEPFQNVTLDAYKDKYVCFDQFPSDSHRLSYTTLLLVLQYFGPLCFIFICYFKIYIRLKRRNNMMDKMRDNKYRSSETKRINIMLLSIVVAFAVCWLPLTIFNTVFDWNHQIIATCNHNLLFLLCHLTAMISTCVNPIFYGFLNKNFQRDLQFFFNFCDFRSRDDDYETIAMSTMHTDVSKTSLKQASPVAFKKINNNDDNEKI
Sequence of Histamine H1 receptor (Homo sapiens) (P35367 whole entry): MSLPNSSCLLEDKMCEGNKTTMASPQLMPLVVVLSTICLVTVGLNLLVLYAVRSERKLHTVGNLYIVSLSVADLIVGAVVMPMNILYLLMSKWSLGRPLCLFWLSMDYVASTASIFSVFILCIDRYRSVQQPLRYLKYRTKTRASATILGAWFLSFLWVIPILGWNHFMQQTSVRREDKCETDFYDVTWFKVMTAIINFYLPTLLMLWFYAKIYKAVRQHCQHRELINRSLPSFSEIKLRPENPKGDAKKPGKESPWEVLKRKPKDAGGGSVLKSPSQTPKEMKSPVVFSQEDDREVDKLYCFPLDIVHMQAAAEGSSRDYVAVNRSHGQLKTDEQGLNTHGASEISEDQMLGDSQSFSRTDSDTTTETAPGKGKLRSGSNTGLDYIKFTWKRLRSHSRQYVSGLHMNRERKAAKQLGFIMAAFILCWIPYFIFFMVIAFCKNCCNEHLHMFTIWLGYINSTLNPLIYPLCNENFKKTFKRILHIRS
Sequence of Muscarinic acetylcholine receptor M2 (Homo sapiens) (P08172 whole entry): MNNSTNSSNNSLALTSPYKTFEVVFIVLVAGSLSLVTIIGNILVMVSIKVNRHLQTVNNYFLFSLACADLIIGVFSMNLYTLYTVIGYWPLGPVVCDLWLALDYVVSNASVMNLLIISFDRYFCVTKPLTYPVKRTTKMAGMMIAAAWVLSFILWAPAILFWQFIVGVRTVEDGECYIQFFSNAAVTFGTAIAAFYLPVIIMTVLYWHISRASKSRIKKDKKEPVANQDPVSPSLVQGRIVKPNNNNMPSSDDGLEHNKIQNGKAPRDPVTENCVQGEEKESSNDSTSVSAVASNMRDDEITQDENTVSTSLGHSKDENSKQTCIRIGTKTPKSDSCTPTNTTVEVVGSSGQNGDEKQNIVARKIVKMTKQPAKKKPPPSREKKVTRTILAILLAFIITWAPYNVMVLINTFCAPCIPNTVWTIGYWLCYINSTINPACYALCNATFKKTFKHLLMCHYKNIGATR

| SMILES | Activity (Mus musculus [2]) | Time (Mus musculus [6]) [h] | Time (Mus musculus [7]) [h] | ED50 (Mus musculus [8]) [mg/kg] | ED50 (Mus musculus [9]) [mg/kg] | ED50 (Mus musculus [10]) [mg/kg] | selectivity ratio [11] | selectivity ratio [12] | selectivity ratio [13] | TD50 [14] [mg/kg] | inhibition [15] [%] | inhibition (Rattus norvegicus [16]) [%] | inhibition [17] [%] | inhibition [18] [%] | inhibition [19] [%] | inhibition (Rattus norvegicus [20]) [%] | inhibition (Rattus norvegicus [21]) [%] | Activity (Mus musculus [22]) | Activity (Rattus norvegicus [24]) | Activity (Rattus norvegicus [25]) | further results |
| --- | --- | --- | --- | --- | --- | --- | --- | --- | --- | --- | --- | --- | --- | --- | --- | --- | --- | --- | --- | --- | --- |
| Cc1ccccc1/C=C/C(=O)N[C@@H](C)CO | Non-Toxic | 0.5 | 0.5 | 43.3 | 132 | 74.1 | 6.51 | 2.15 | 3.81 | 282 | -0.8 | -3.4 | -8.3 | -7.6 | -4.6 | -0.4 | -8.7 | – | – | – | Activity (Mus musculus [1]): Active; Activity (Rattus norvegicus [3]): Non-Toxic; Activity (Rattus norvegicus [4]): Non-Toxic; Activity (Rattus norvegicus [5]): Active |
| CC(O)CNC(=O)/C=C/c1ccc(Cl)cc1 (configuration not stated) | Toxic | 1 | 1 | 92.5 | 132 | 120 | > 5.41 | > 3.79 | > 4.17 | > 500 | -9.6 | -0.1 | -1 | -6.9 | -2.6 | -2.5 | -9.6 | Active | Non-Toxic | Non-Toxic | Activity (Rattus norvegicus [23]): Active; Activity (Rattus norvegicus [26]): Non-Toxic; inhibition [27]: -10%; inhibition [28]: -6.4%; inhibition [29]: -2.8%; inhibition [30]: -5.8%; inhibition [31]: 14.1%; inhibition [32]: -7%; inhibition [33]: 9% |
| CCC(CO)NC(=O)/C=C/c1ccc(Cl)cc1 (configuration not stated) | – | – | – | – | – | – | – | – | – | – | – | – | – | – | – | – | – | Active | Non-Toxic | Non-Toxic | Activity (Mus musculus [34]): Non-Toxic; Activity (Mus musculus [35]): Active; Activity (Rattus norvegicus [36]): Active; Activity (Rattus norvegicus [26]): Non-Toxic; Time (Rattus norvegicus [37]): 4 h; inhibition [28]: -5.2%; inhibition [31]: 4.3%; inhibition [32]: -9.9%; inhibition [33]: 10.6% |

Reference: ChEMBL document CHEMBL3875185, “Structure-anticonvulsant activity studies in the group of (E)-N-cinnamoyl aminoalkanols derivatives monosubstituted in phenyl ring with 4-Cl, 4-CH3 or 2-CH3” (Bioorg Med Chem, 2017)
